Measurements published in ChEMBL document CHEMBL2021829, “Design, Synthesis and Biological Evaluation of a Series of Novel Axl Kinase Inhibitors” (ACS Med Chem Lett, 2011).

Target: T1, Tyrosine-protein kinase Mer (Homo sapiens, UniProt Q12866)
T1 sequence (Q12866 whole entry): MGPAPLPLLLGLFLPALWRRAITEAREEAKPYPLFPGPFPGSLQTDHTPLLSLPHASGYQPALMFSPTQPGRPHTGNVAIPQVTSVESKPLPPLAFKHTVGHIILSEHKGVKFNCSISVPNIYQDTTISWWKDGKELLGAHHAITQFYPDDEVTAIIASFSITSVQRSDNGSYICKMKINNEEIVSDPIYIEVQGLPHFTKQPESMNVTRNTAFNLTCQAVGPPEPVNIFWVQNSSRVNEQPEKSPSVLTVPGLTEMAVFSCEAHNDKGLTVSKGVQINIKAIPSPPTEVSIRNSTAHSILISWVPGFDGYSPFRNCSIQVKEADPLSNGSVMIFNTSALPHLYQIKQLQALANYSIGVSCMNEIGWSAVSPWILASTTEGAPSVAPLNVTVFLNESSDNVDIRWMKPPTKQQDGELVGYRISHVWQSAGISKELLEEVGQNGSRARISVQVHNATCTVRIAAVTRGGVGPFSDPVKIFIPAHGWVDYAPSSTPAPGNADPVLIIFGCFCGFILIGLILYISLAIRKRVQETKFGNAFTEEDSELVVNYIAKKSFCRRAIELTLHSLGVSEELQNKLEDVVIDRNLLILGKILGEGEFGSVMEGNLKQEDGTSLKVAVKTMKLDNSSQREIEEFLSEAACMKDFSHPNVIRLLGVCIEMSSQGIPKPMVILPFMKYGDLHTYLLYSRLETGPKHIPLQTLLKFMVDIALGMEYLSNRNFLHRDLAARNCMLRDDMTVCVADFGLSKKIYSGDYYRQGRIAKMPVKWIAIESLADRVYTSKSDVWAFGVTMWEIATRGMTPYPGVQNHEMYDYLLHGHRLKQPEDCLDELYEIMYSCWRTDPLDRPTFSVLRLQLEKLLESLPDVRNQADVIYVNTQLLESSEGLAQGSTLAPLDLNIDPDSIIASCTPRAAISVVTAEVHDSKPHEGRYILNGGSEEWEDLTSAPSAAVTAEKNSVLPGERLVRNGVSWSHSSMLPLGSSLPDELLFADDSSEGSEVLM
Experiment: Inhibition of Mer kinase
Conditions: not given

IC50 | SMILES
11300 nM | CC(C)n1cnc2c(Nc3cccc(Cl)c3)nc(NCCO)nc21

Target: Aurora kinase B (Homo sapiens, UniProt Q96GD4)
Sequence (Q96GD4 whole entry): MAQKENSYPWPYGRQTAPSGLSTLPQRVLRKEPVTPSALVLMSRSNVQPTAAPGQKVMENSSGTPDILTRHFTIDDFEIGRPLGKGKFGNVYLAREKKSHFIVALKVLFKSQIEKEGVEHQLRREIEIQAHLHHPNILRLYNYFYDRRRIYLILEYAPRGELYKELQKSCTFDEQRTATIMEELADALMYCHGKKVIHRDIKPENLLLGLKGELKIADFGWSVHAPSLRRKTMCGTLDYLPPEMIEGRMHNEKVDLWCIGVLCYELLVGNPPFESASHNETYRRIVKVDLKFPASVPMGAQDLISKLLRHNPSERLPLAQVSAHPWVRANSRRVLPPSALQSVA
Experiment: Inhibition of Aurora B
Conditions: not given

IC50 | SMILES
12.4 nM | CN1CCN(Cc2ccc(Nc3ncc(Cl)c(Nc4ccccc4S(=O)(=O)N(C)C)n3)cc2)CC1 [DUBERMATINIB]

System: PSN1
Experiment: Cytotoxicity against human PSN1 cells after 96 hrs by ATP-lite luminescence assay
Assay type: functional, cell-based
Conditions: PSN1, 96 h

SMILES | IC50
CN1CCN(Cc2ccc(Nc3ncc(Cl)c(Nc4ccccc4C(=O)N(C)C)n3)cc2)CC1 | 70 nM
CN1CCN(Cc2ccc(Nc3ncc(Cl)c(Nc4ccccc4C(=O)N4CCCC4)n3)cc2)CC1 | 21 nM
CN1CCN(Cc2ccc(Nc3ncc(Cl)c(Nc4ccccc4C(=O)NC4CC4)n3)cc2)CC1 | 64 nM
CN1CCN(Cc2ccc(Nc3ncc(Cl)c(Nc4ccccc4S(=O)(=O)N4CCCC4)n3)cc2)CC1 | 2 nM
CN1CCN(Cc2ccc(Nc3ncc(Cl)c(Nc4ccc(F)cc4S(=O)(=O)N4CCCC4)n3)cc2)CC1 | 9 nM
CN1CCN(Cc2ccc(Nc3ncc(Cl)c(-c4ccc(F)cc4S(=O)(=O)N4CCCC4)n3)cc2)CC1 | 192 nM

Target: T2, Aurora kinase A (Homo sapiens, UniProt O14965)
T2 sequence (O14965 whole entry): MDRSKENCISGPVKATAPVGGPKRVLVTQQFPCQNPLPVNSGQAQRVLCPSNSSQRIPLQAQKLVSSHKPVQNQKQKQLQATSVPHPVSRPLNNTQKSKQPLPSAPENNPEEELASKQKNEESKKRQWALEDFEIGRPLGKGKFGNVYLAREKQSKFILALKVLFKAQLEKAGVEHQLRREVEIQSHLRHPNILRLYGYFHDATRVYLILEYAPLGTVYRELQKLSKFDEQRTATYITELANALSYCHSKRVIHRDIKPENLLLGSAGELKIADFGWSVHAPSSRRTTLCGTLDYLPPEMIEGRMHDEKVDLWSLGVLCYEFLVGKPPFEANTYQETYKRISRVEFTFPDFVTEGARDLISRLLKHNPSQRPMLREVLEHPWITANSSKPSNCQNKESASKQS
Experiment: Inhibition of Aurora A
Conditions: not given

IC50 | SMILES
3 nM | CN1CCN(Cc2ccc(Nc3ncc(Cl)c(Nc4ccccc4S(=O)(=O)N(C)C)n3)cc2)CC1 [DUBERMATINIB]

Target: T3, Tyrosine-protein kinase receptor UFO (Homo sapiens, UniProt P30530)
T3 sequence (P30530 whole entry): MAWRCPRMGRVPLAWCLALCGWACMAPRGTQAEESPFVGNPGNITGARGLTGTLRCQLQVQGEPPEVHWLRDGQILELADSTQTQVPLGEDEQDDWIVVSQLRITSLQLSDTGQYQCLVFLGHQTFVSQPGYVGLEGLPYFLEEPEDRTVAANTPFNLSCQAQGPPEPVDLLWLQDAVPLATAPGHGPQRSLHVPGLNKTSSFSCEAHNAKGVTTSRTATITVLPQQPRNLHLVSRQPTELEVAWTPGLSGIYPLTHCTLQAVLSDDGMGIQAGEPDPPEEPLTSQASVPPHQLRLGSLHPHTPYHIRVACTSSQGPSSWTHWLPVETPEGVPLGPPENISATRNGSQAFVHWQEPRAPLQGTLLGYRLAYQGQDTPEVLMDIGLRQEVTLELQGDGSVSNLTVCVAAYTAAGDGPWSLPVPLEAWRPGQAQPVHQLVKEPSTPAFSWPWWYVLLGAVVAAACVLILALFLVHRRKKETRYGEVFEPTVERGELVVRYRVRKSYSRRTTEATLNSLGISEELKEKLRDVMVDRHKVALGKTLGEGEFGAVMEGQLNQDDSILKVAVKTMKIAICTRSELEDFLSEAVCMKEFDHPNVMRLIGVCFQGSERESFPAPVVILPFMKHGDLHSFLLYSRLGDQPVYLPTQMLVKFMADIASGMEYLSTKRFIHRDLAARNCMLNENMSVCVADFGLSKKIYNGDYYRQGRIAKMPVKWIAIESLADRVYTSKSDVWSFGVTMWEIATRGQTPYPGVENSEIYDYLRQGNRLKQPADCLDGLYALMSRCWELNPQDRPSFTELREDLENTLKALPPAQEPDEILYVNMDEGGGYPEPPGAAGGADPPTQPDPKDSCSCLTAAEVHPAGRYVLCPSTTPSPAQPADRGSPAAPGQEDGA
Conditions: not given

SMILES | IC50
CN1CCN(Cc2ccc(Nc3ncc(C4CC4)c(-c4ccc(F)c(Cl)c4)n3)cc2)CC1 | 3400 nM
CN1CCN(Cc2ccc(Nc3ncc(C(F)(F)F)c(Nc4ccccc4C(=O)N(C)C)n3)cc2)CC1 | > 10000 nM

Results, then the compound that gave them:

IC50 | SMILES
2800 nM | Cc1cnc(Nc2ccc(N3CCN(C)CC3)c(F)c2)nc1-c1ccc(F)c(Cl)c1
6100 nM | Cc1cnc(Nc2ccc(N3CCN(C)CC3)c(F)c2)nc1-c1ccc(F)cc1
1630 nM | Cc1cnc(Nc2ccc(OCCN3CCCCC3)cc2)nc1-c1ccc(F)c(Cl)c1
19 nM | CN1CCN(Cc2ccc(Nc3ncc(Cl)c(Nc4ccccc4S(=O)(=O)N4CCCC4)n3)cc2)CC1
82 nM | CN1CCN(Cc2ccc(Nc3ncc(Cl)c(-c4ccc(F)cc4S(=O)(=O)N(C)C)n3)cc2)CC1
91 nM | CN1CCN(Cc2ccc(Nc3ncc(Cl)c(-c4ccc(F)cc4S(=O)(=O)N4CCCC4)n3)cc2)CC1
1730 nM | CN1CCN(c2ccc(Nc3ncc(Cl)c(Nc4ccccc4S(=O)(=O)N(C)C)n3)cc2)CC1
